Values joined by “and” are separate entries in the source; they are usually repeats but may differ in a detail not shown here. Equal entries are not always repeated. Where no end group is shown, it is not given here.
Test system: Staphylococcus aureus
Test: Bactericidal activity in milk, percent bacterial survival (Example 1, Table 1)
Type: cell-based
Details: for % survival 2 hr: initial viable counts 5 × 10^7 cfu/ml
Method: All tests in the following examples were performed at 37° C. The efficacy of the enhanced broad range bactericides was determined by assaying bactericidal activity as measured by the percent bacterial survival after treatment with the bactericide. Generally, after incubation of a 10^7 cell per ml suspension of target species with the novel bactericide for specified lengths of time, bacteria were collected by centrifugation for 2 minutes. The bacterial pellet was washed free of the bactericide with a rescue buffer, termed herein Phage buffer (50 mM Tris-HCl buffer pH 7.8, 1 mM MgSO4, 4 mM CaCl2, 0.1M NaCl, and 0.1% gelatin), resuspended and serially diluted into Phage buffer, and 100 μl of the suspended bacteria were spread on nutrient agar plates. Surviving bacteria were determined by scoring colony forming units (CFU) after incubation for 24-48 hours at 37° C. An effective bactericide according to this invention is one which allows less than 0.1% of the initial viable count of the bacteria to survive.
Staphylococcus aureus cells were suspended and incubated in milk at 37° C. for 2 hours with various concentrations of lysostaphin, nisin, or a combination of lysostaphin and nisin in the milk. The bactericidal efficacy of the bactericides was estimated by determining the percent survival of bacteria as described above.

Substance	% survival 2 hr (Nisin 0.2 μg/ml, Lysostaphin 0, milk, 37° C.)	% survival 2 hr (Nisin 0.5 μg/ml, Lysostaphin 0, milk, 37° C.)	% survival 2 hr (Nisin 1.0 μg/ml, Lysostaphin 0, milk, 37° C.)	% survival 2 hr (Nisin 2.0 μg/ml, Lysostaphin 0, milk, 37° C.)	% survival 2 hr (Nisin 4.0 μg/ml, Lysostaphin 0, milk, 37° C.)	bactericidal activity in milk (in words) (milk, 37° C.)	% survival 2 hr (Lysostaphin 1.0 μg/ml, Nisin 0, milk, 37° C.)	log reduction in viable cells (Lysostaphin alone 1.0 μg/ml in milk)
Nisin (ITSISLCTPGCKTGALMGCNMKTATCHCSIHVSK; also: lantibiotic nisin-A: lanthionine rings and dehydrated residues, places not given here; UniProt P13068 24-57, looked up) [lanthionine containing peptide bacteriocin produced by Streptococcus lactis]	45%	33%	9%	2.5% and 0.5%	0.5%	little practical bactericidal activity	–	–
Lysostaphin	–	–	–	–	–	–	< 10^-3%	more than a five log reduction

Reference: patent US4980163A, “Novel bacteriocin compositions for use as enhanced broad range bactericides and methods of preventing and treating microbial infection” (Public Health Research Institute of the City of New York, priority 1989, dated 1990)
